The data set in a line: Precipitation from aqueous solution in the absence of the emulsifier. The class given is physicochemical. The following applies: without natural emulsifier. An excerpt:
In accordance with various exemplary embodiments of the present technology, the sweetener composition may comprise a natural emulsifier. The natural emulsifier may function to disperse the stevia glycosides through an aqueous solution such as water. The dissolved concentration of the stevia glycosides in the aqueous solution may be higher in the presence of the natural emulsifier than in the absence of the natural emulsifier. For example, rebaudioside A present in amounts of 11% by weight or greater may precipitate from an aqueous solution. In various embodiments of the present technology, the natural emulsifier may allow rebaudioside A to be present in aqueous solution in amounts of up to about 20% by weight without precipitation. In some embodiments, adding the natural emulsifier to an aqueous (ie., water-based) solution of stevia glycosides may stabilize the solubility of the sweetener composition including reducing or eliminating the precipitation of solids from the solution by binding any of the components to prevent separation of the finished sweetener composition.
In various embodiments, the solubility of the aqueous sweetener composition may remain stable for more than five days at room temperature. In some embodiments, the solubility of the aqueous sweetener composition may remain a stable for at least six months at room temperature. […]

Some results are limits rather than exact numbers.

As to `C=C1C[C@@]23CC[C@H]4[C@@](C)(CCC[C@@]4(C)C(=O)O[C@@H]4O[C@H](CO)[C@@H](O)[C@H](O)[C@H]4O)[C@@H]2CC[C@]1(O[C@@H]1O[C@H](CO)[C@@H](O)[C@H](O[C@@H]2O[C@H](CO)[C@@H](O)[C@H](O)[C@H]2O)[C@H]1O[C@@H]1O[C@H](CO)[C@@H](O)[C@H](O)[C@H]1O)C3` [rebaudioside A], the “amount at which it may precipitate from an aqueous solution” value is reported as no less than 11 % by weight.

These data come from US11627753B2, “Solubilized steviol glycoside compositions” (JAMES AND CAROL MAY FAMILY, LLLP, priority 2014, dated 2023).
